# Key:
# endometriotic cells = test: Suppression of growth and inflammation of endometriotic cells; assay type: cell-based; details: used alone
# [1] = test system: YHES cells pretreated with H2O2; test: H2O2-induced cell proliferation, MTT assay; assay type: cell-based, human; details: H2O2 1 μM, 48 hours; for suppression of H2O2-induced cell proliferation: vs H2O2 only
# Experimental: MTT assay was performed after 48 hours of treatment.
# (§1) The YHES cells were harvested by trypsinization and seeded in 96-well plate at ˜1×10^4 cells/well. The cells were allowed to attach to the plate for overnight at 37° C. with 5% C02 in a humidified incubator. Then they were pretreated with physiological concentration of E2 (10^-9M) and P (10^-7M) for 24 hr to maintain hormonal responsiveness. […] Cell growth was valuated by the MTT assay (ATCC, Manassas, Va.). MTT assay was performing according to the manufacturer's instructions, and in triplicate to generate mean values. Cell numbers in the untreated control were arbitrarily assigned as 1. The relative cell growth was expressed as fold increase/decrease relative to the control. Data were presented as mean values from three independently repeated experiments.
# The addition of H202 was meant to mimic the oxidative stress as reported in endometriosis. […] RU486 suppressed cell proliferation by 75% at the concentration of 100 μM.
# AR [2] = test: Western blot of AR protein in treated YHES cells; assay type: cell-based, human; details: 16 hrs; TSA 10 μM, CDB 100 μM, NAC 10 mM
# Experimental: Western blot analysis was performed to measure protein expression of β-actin, ERα, ERβ, and AR. […] Whole cell lysate was prepared as previously described (44) by using RIPA lysis buffer containing 50 mM Tris, pH 7.4, 150 mM NaCl, 12 mM EDTA, 1% Triton X-100, 0.5% sodium deoxycholate, and 0.1% SDS. To avoid degradation, a protease inhibitor cocktail III (Sigma) was added at 2%. Total protein was quantified using a BCA protein assay kit (Pierce, Rockford, Ill.). Ten microgram of total protein was separated by electrophoresis on 10% SDS-polyacrylamide gels. The protein was then transferred onto PVDF membranes (Milipore, Bedford, Mass.). […] The blot was then subsequently incubated with primary antibody rabbit anti-human ERα (Santa Cruz Biotechnology, CA), rabbit anti-human ERβ (Zymed Laboratories, South San Francisco, Calif.), rabbit anti-β-actin (Cell Signaling Technology, Beverly, Mass.), or rabbit ant-human AR (Santa Cruz Biotechnology, CA), respectively, in blocking solution (5% nonfat dry milk plus PBS) for 2 hr at room temperature. After washing with PBS plus 0.5% Tween-20, the membranes were then incubated with the secondary antibody goat anti-rabbit IgG (H+L)-HRP (Santa Cruz Biotechnology, CA) at 1:8000 dilution in blocking solution for 2 h at room temperature. […]
# Fas = Fas mRNA expression by RT-PCR in treated YHES cells; assay type: cell-based, human
# Experimental: (§2) The YHES cells were harvested by trypsinization and seeded in 12-well at 5×10^4 cells/well plates and were pretreated with E2 and P as described above. […] Total RNA was isolated from treated cells using TRIzol reagent (Invitrogen, Carlsbad, Calif.) according to the manufacturer's instructions. The integrity of total RNA was inspected on an agarose gel. One microgram of total RNA from each sample was treated with DNase I to remove potential DNA contamination and then reverse-transcribed using Superscript II Reverse Transcriptase (Invitrogen). First-strand cDNA obtained from RNA samples was stored at −80° C. until use. To measure the mRNA expression levels of AR, PR-A, PR-B, Fas and FasL in each cell culture, semi-quantitative PCR analysis was performed.
# (§3) Quantitative real-time RT-PCR was carried out on an ABI 7900 DNA sequencer (Applied Biosystems), and monitored by SYBR Green I (Qiagen, Valencia, Calif.). The PCR products of the expected size were visualized on a 0.8% agarose gel. The relative mRNA level of each gene was calculated using relative quantitation of gene expression (Applied Biosystems, Foster City, Calif.) with 18s as an endogenous control. The reproducibility of the quantitative measurements was evaluated by two independent cDNA syntheses. The means and standard deviations of the replicated measurements were calculated and presented as mean ±s.d.
# PR-B = PR-B mRNA expression by RT-PCR in treated YHES cells; assay type: cell-based, human; details: 8 h, 18 h and 36 h; TSA 10 μM, CDB 100 μM, NAC 10 mM; semi-quantitative RT-PCR
# Experimental: as §2, §3
# PR-A = PR-A mRNA expression by RT-PCR in treated YHES cells; assay type: cell-based, human; details: 8 h, 18 h and 36 h; TSA 10 μM, CDB 100 μM, NAC 10 mM; semi-quantitative RT-PCR
# Experimental: as §2, §3
# AR [3] = test: AR mRNA expression by RT-PCR in treated YHES cells; assay type: cell-based, human; details: for AR mRNA expression level vs untreated control: 8 h, 18 h and 36 h, TSA 10 μM, CDB 100 μM, NAC 10 mM, semi-quantitative RT-PCR; for AR expression: 36 h of treatment, real-time RT-PCR
# Experimental: as §2, §3
# YHES cells = test: Long-term culture and morphology after treatment; assay type: cell-based, human; details: for recovery judged by morphology: four weeks after the treatment, TSA and RU486 at 100 μM
# Source text: The micrographs of the first two rows were taken using 20× magnification, and those of the third row were taken using 10× magnification. The micrographs of the first row and the first two micrographs of second row were obtained using differential inference contrast (DIC) optic; the others were obtained without the DIC optic. […]
# [4] = test system: YHES cells (immortalized human endometrial stromal cell line); test: MTT cell proliferation assay in YHES cells; assay type: cell-based; details: 48 hr; for increased cell proliferation: E2 and P pretreated, vs control
# Experimental: An immortalized human endometrial stromal cell line was maintained following Krikun et al. (Krikun et al. 2004 Endocrinology 145:2291-6). Cells were maintained in phenol red-free DMEM/F12 (Gibco, CA) medium supplemented with 10% charcoal-dextran stripped FBS (Biomeda, CA), 1 μl/ml sodium pyruvate (Gibco, CA) and 1× Pen/Strep/Fungizone (Gibco, CA), at 37° C. with 5% C02 in a humidified incubator.
# as §1
# [5] = test system: patients diagnosed with adenomyosis; test: Pilot study of off-label valproic acid in adenomyosis; assay type: in vivo, human; details: for relief of dysmenorrhea reported by patients: 3 patients
# Source text: After informed consent, we recruited three patients diagnosed with adenomyosis (FIG. 28). All three patients had moderate to severe dysmenorrehea. They were all married and parous, and had normal menstrual cycles (28-30 days). […] During the recruitment, all patients were offered the option of hysterectomy or the chance to try an experimental drug. They all chose to try the drug and were all given the full explanation of the experimental nature of this study and possible risks associated with it. Approval for this pilot study was obtained from the local ethics committee at Shanghai OB/GYN Hospital, Fudan University. The diagnosis of adenomyosis of all three patients was made based on symptomology, pelvic examination and vaginal ultrasound evaluation by experienced physicians (FIG. 28). […] The treatment was terminated at the end of the 3rd month after taking the drug and the patients were followed up for an additional 3 months. During treatment, clinical signs, symptoms and ultrasound evaluation were closely monitored. Blood counts and biochemistries including liver function tests, ammonium and coagulation studies were performed monthly.
# [6] = Pilot study: safety, tolerability and laboratory monitoring; assay type: in vivo, human
# Source text: The diagnosis of adenomyosis of all three patients was made based on symptomology, pelvic examination and vaginal ultrasound evaluation by experienced physicians (FIG. 28). […] The treatment was terminated at the end of the 3rd month after taking the drug and the patients were followed up for an additional 3 months. During treatment, clinical signs, symptoms and ultrasound evaluation were closely monitored. Blood counts and biochemistries including liver function tests, ammonium and coagulation studies were performed monthly.
# endometrial cells = details: immortalized human endometrial stromal cells; cited from earlier work
# [7] = test system: endometrial stromal cells; details: in vitro; cited from earlier work
# [8] = 18 and 36 h after the treatment
smiles,measurement,setting,value
Nc1ncn([C@@H]2O[C@H](CO)[C@@H](O)[C@H]2O)c(=O)n1 [5-azacytidine],effect of use alone on growth and inflammation,endometriotic cells,some effect in suppression of growth (but not inflammation)
"CC(=O)O[C@]1(C(C)=O)CC[C@H]2[C@@H]3CCC4=CC(=O)CCC4=C3[C@@H](c3ccc(N(C)C)cc3)C[C@@]21C [CDB, CDB-2914]",suppression of H2O2-induced cell proliferation,[1]; 100 μM,49%
same,AR protein level vs control group,AR [2],increased
same,Fas expression,Fas; [8],decreased
same,Fas expression,Fas; 8 h after the treatment,increased
same,PR-B mRNA expression level vs untreated control,PR-B,increased
same,PR-A mRNA expression level vs untreated control,PR-A,increased
same,AR mRNA expression level vs untreated control,AR [3],increased
same,AR expression,AR [3],maintained the increased expression
same,cell morphology,YHES cells; 24 h after the treatment,signs of apparent apoptosis
same,recovery judged by morphology,YHES cells,apparently recovered
same,effect on cell proliferation,"[4]; 10 μM or lower (10, 1, 0.1 μM)",statistically non-significant inhibition of cell proliferation
same,effect on cell proliferation,[4]; 100 μM (highest concentration),significant suppression of cell proliferation
OO [H2O2],increased cell proliferation,[4]; 1 μM,18%
same,increased cell proliferation,[4]; 10 μM,22%
same,effect on cell proliferation,[4]; 100 μM (highest concentration),induced inhibition of proliferation
"C[C@]12CC[C@@H]3c4ccc(O)cc4C[C@@H](CCCCCCCCC[S+]([O-])CCCC(F)(F)C(F)(F)F)[C@H]3[C@@H]1CC[C@@H]2O (stereo partly shown) [ICI, ICI 182780]",effect on H2O2-induced cell proliferation,[1]; 100 μM,did not significantly inhibit
same,increase in proliferation as compared with the control group,[4]; 0.1 μM,about 40%
same,effect on cell proliferation,"[4]; across 100, 10, 1, 0.1 μM",no statistically significant reduction in proliferation
"CC(=O)N[C@@H](CS)C(=O)O [NAC, N-acetylcysteine]",suppression of H2O2-induced cell proliferation,[1]; 10 mM,63%
same,Fas expression,Fas; [8],decreased
same,Fas expression,Fas; 8 h after the treatment,increased
same,PR-B mRNA expression level vs untreated control,PR-B,increased
same,PR-A mRNA expression level vs untreated control,PR-A,increased
same,AR mRNA expression level vs untreated control,AR [3],increased
same,AR expression,AR [3],maintained the increased expression
same,recovery judged by morphology,YHES cells,apparently recovered
same,suppression of proliferation,[4]; 10 mM,35%
same,suppression of proliferation,[4]; 30 mM,50%
CC#C[C@]1(O)CC[C@H]2[C@@H]3CCC4=CC(=O)CCC4=C3[C@@H](c3ccc(N(C)C)cc3)C[C@@]21C [RU486],suppression of H2O2-induced cell proliferation,[1]; 100 μM,75%
same,reduction of cell proliferation as compared with controls,[4]; 100 μM,> 95%
"CCCC(CCC)C(=O)O [VPA, valproic acid]",average reduction of uterus size,"[5]; end of the 3-month treatment, three patients",33%
same,uterus size by physical examination,[5]; end of the 3rd month,slight reduction in uterus size in one patient but no change in the other two
same,pelvic and ultrasound examinations,[5]; one month after taking VPA,no change in uterus size or other conditions
same,relief of dysmenorrhea reported by patients,[5]; three months after taking the drug (end of treatment),all three patients reported complete relief of pain without any need for pain-killers
same,relief of dysmenorrhea reported by patients,"[5]; three months after taking the drug (end of treatment), listed as valproic acid",all three recruited patients reported complete disappearance of dysmenorrhea
same,dysmenorrhea reported by patients,[5]; three months after the discontinuation of the treatment,"2 patients reported disappearance of dysmenorrehea, but 1 reported the return of the same symptom"
same,relief of dysmenorrhea reported by patients,"[5]; two months after taking VPA, oral 500 mg b.i.d. then t.i.d.","2 patients reported complete relief of dysmenorrehea with no need for pain-killers, and 1 reported much relieved pain"
same,tolerability,[6]; 3-month oral VPA,well tolerated
same,serum level of testosterone vs normal range,[6]; end of three month after taking VPA,within the normal range
same,liver function and other biochemistries,"[6]; monthly during treatment, all cases",remained normal
same,effect on cell cycle,endometrial cells,induce cell cycle arrest
same,effect on proliferation,[7],suppressing proliferation of endometrial and endometriotic cells in vitro
